According to US11872230B2, “Method of treating a methionine-dependent cancer” (Agency for Science, Technology and Research, priority 2018, dated 2024):
“Also recorded” adds a separate entry of the source.

Columns and labels:
[1] = system: triple-negative breast cancer (TNBC) cells incl. BC2.2; assay: Sensitivity of triple-negative breast cancer cells to MAT2A inhibition; type: cell-based; conditions: in particular chemotherapy resistant BC2.2
[2] = system: TS cells; assay: Apoptosis assay (Annexin V/PI) of inhibitor treated TS cells; type: cell-based, human; conditions: transient exposure
Description: 10^6 cells were stained with FITC Annexin V and PI, and analysed for apoptosis by flow cytometry using an LSRII Cell Analyzer (BD) according to manufacturer's instructions.

[3] = system: CD166 expression in TS cells; assay: CD166 staining of TS cells by flow cytometry; type: cell-based, human; conditions: FIDAS vs DMSO
[4] = system: lung patient-derived xenograft (PDX) cells A139, A233; assay: Patient-derived lung tumor xenografts (PDX) in NSG mice; type: in vivo; conditions: two PDX lines, FIDAS5 40 mg/kg for three days after implantation, six weeks
Description: (§1) 5×10^5 single cells were mixed in a 1:1 mixture of serum free DMEM/F12 and Matrigel (BD) and injected subcutaneously into the flanks of 4-6 week old male and female NOD.Cg-Prkdc^scid Il2rg^tm1wjl SzJ (Jackson Laboratories). About 6 weeks later, or when tumor sizes exceed 2 cm in length, mice were sacrificed and tumors harvested for analysis. All animal experiments were approved by the Agency for Science Technology and Research Singapore—Biological Resource Centre. Mice were randomized by sex.
(§2) Since FIDAS5 appeared to more specifically disrupt the methionine cycle and inhibit cellular methylation activities compared to D9, it was sought to test whether its systemic delivery could impact the tumorigenic potential of TS cells. These highly tumorigenic cells were first subcutaneously implanted into NSG mice and FIDAS5 (40 mg/kg) or corn oil carrier was immediately administered via intraperitoneal injection for three consecutive days. After 6 weeks, mice transiently treated with FIDAS5 produced tumors that were much smaller than carrier-treated controls. […] To exclude the possibility of general cytotoxicity associated with the inhibitor on TS cells, TS cell-implanted NSG mice were treated with cisplatin (4 mg/kg), a frontline chemotherapeutic agent that broadly target bulk cancer cells in NSCLC tumors, in the same manner (FIG. 5i). […]

[5] = system: cancer cell lines with high or low MAT2A expression; assay: Proliferation of cancer cell lines grown in FIDAS5 containing medium; type: cell-based; conditions: 10 uM
Experimental: (§3) Cells were seeded into 96-well plates at a density of 2,000 cells/well for TS cells and 500 cells/well for Adh cells. The relative number of viable cells was determined by the quantification of ATP using the CellTiter-Glo Luminescent Cell Viability Assay (Promega) system.

[6] = system: TS cells; assay: Orthotopically implanted GFP-expressing TS cells in lungs of NSG mice; type: in vivo; conditions: orthotopic TS cells, transient treatment for 3 days, 5 weeks post implantation
Description: GFP expressing 1.5×10^6 single TS cells (transduced with PLL3.7 vector) with suspended in tumor sphere media and injected intravenously through tail-vein into 4-6 week old male and female NOD.Cg-Prkdc^scid Il2rg^tm1wjl SWJ (Jackson Laboratories) mice. Mice were continuously monitored and then sacrificed at 5 weeks post injection. Lungs were harvested, fixed in 4% paraformaldehyde and embedded in paraffin for subsequent analysis. Anti-GFP (ab13970) antibody from Abcam and Alexa-Fluor Goat 488 anti-Chicken antibody (A-11039; ThermoFisher) was used to visualize and quantify GFP-positive lesions using immunofluorescence protocol outlined above. Mice were randomized by sex.
Since FIDAS5 appeared to more specifically disrupt the methionine cycle and inhibit cellular methylation activities compared to D9, it was sought to test whether its systemic delivery could impact the tumorigenic potential of TS cells. These highly tumorigenic cells were first subcutaneously implanted into NSG mice and FIDAS5 (40 mg/kg) or corn oil carrier was immediately administered via intraperitoneal injection for three consecutive days. After 6 weeks, mice transiently treated with FIDAS5 produced tumors that were much smaller than carrier-treated controls. […]

[7] = system: histone methylation in TS cells; assay: Western blot of methylated histones in TS cells; type: cell-based, human; conditions: TS cells exposed transiently (48 h) to inhibitor
Experimental: 1.5×10^6 cells were lysed in Llaemli-SDS buffer and then sonicated. Total protein concentration was measured by Bradford assay. Total cell lysates were separated by SDS-PAGE and transferred onto nitrocellulose, followed by blocking in 5% (v/v) milk in Tris-buffered saline in Tween 20, probing with the indicated antibodies and visualized by chemiluminescence (Roche). Primary antibodies used were anti-β-Actin (sc-47778), anti-GAPDH (sc-32233) from Santa Cruz: anti-GLDC (ab97625), anti-H3 (ab1791), anti-H3 (dimethylK36) (ab9049), anti-MAT2A (ab77471), anti-MTR (ab9209), anti-H3 (trimethylK79) (ab2621), anti-MTHFR (ab125707), anti-MTAP (ab ab55517) from Abcam; anti-H3(trimethyl K4) (39159), anti-H3(trimethyl K27)(39155), anti-H3(trimethylK36)(61101) and anti-H3(trimethylK9)(39765) from Active Motif; anti-β-catenin (BD610154) from BD Biosciences; anti-SHMT2 (HPA020549) and anti-SAHH (WH0000191M8) from Sigma; anti-Symmetric Di-Methyl Arginine Motif (13222) from CST.
To evaluate the methionine cycle as a therapeutic target in lung TICs, small molecule inhibitors that target enzymes within this pathway were employed, mimicking the effects of short-term methionine starvation (FIG. 5a). two inhibitors known to perturb methionine cycle activity and cellular methylation levels: 1) MAT2A inhibitor, FIDAS5; and 2) SAHH inhibitor, D9, which is an analog of DZNep. In a manner similar to amino acid starvation studies, TS cells were exposed transiently to the compounds for 48 h in culture and were immediately used for downstream tumorigenesis assays.

[8] = system: TS cells; assay: Cell proliferation assay (CellTiter-Glo) of TS cells; type: cell-based, human
Experimental: as §3

[9] = system: TS cells (lung TICs); assay: Intraperitoneal administration to NSG mice subcutaneously implanted with lung TICs; type: in vivo; conditions: FIDAS5 40 mg/kg i.p., three consecutive days, after 6 weeks
Description: as §1, §2

CNc1ccc(/C=C/c2c(F)cccc2Cl)cc1 [FIDAS5]
effect on TNBC cells [1]: displayed sensitivity; also recorded: effective
apoptosis [2]: did not negatively impact their long-term proliferation ability or trigger apoptosis
CD166 expression [3]: loss of CD166 expression
xenograft tumors smaller relative to sham-treated mice [4]: at least 6 fold
growth upon FIDAS5 treatment ([5]; cancer cell lines expressing high MAT2A): dramatically hampered in their growth
growth upon FIDAS5 treatment ([5]; cancer cell lines expressing low MAT2A): largely insensitive
number of pulmonary lesions [6]: decreased number of pulmonary lesions
histone methylation levels [7]: complete ablation
growth capacity ([8]; TS cells exposed to FIDAS5 for six days, then medium without FIDAS5): completely ablated
long-term proliferation ability ([8]; TS cells, transient 48 h exposure then complete media): did not negatively impact
tumor size vs carrier-treated controls [9]: much smaller
